One data set concerns HCT-116. Briefly: Cell growth IC50, screening of AOH1160 analogs. The class given is cell-based. The settings on record: Homo sapiens, HCT-116; read-out: IC50 values. The method, then:
(§1) FIG. 29. IC50 data for select compounds. The indicated cell lines were seeded at 10^4 cells per well in a 96 well plate. After allowing to attach to the plate overnight, cells were treated with various concentrations of the indicated compounds in triplicates for 72 hrs. The cell growth was measured by an SRB assay. The cell abundances under each treatment condition relative to the baseline were averaged and graphed ±S.D. The baseline is defined as the median value of the cell abundances under the treatment by the two lowest compound concentrations. The IC50 was calculated by the Prism program.

A further data set has as its system RKO. Briefly: Cell growth IC50, screening of AOH1160 analogs. It counts as cell-based. The settings on record: Homo sapiens, read-out: IC50 values. The method, then: as §1
A further data set relates to OVCAR8. Briefly: Cell growth IC50, screening of AOH1160 analogs. The class given is cell-based. The settings on record: Homo sapiens, OVCAR-8; OVCAR8; read-out: IC50 values. The method, then:
as §1

The conditions of data set [1]: oral, 40 mg/kg, mice (Gu et al., 2018); cited from earlier work.
The next data set concerns SK-N-AS. Briefly: Cell growth IC50, screening of AOH1160 analogs. The class given is cell-based. The settings on record: Homo sapiens, read-out: IC50 values. The method, then:
as §1

The test system of another data set is SK-N-DZ. Briefly: Cell growth IC50, screening of AOH1160 analogs. It counts as cell-based. The settings on record: Homo sapiens. The method, then:
as §1

For the next data set, the system named is SK-N-BE(2)c. Briefly: Cell growth IC50, screening of AOH1160 analogs. The class given is cell-based. The settings on record: Homo sapiens. The method, then: as §1
Data set [2] is described as follows: Cell growth IC50, screening of AOH1160 analogs (cell line not given). The class given is cell-based. The method, then: as §1
For the next data set, the system named is SH-SY5Y. Briefly: Cell growth IC50, screening of AOH1160 analogs. It counts as cell-based. The settings on record: Homo sapiens. The method, then: as §1
The test system of a further data set is MDA-MB-468. Briefly: Cell growth IC50, screening of AOH1160 analogs. It counts as cell-based. The settings on record: Homo sapiens, MDA-MB-468; read-out: IC50 values. The method, then:
as §1

The test system of a further data set is SK-N-FI. Briefly: Cell growth IC50, screening of AOH1160 analogs. The settings on record: Homo sapiens. It counts as cell-based. The method, then: as §1
For the next data set, the system named is MDA-MB-231. Briefly: Cell growth IC50, screening of AOH1160 analogs. It counts as cell-based. The settings on record: Homo sapiens. The method, then:
as §1

The next data set deals with T1, PCNA (Homo sapiens, UniProt P12004).
T1 construct: made in house; host or cells: E. coli Rosetta 2 (DE3)
Briefly: Thermal denaturation (thermal shift) assay. It counts as binding. The settings on record: 9 μM PCNA; 10 or 30 μM compound; dose dependent. The method, then:
FIGS. 1A-1E. AOH1160 analog interactions with PCNA. FIG. 1A: Thermal shift assay: Normalized inverse derivative thermal denaturation plots of 9 μM apo-PCNA with DMSO control is depicted with a black dashed line and PCNA in the presence of 10 μM AOH1160LE is shown in light grey and 30 μM AOH1160LE in dark grey. ΔTm values are provided. FIG. 1B: As described in FIG. 1A, in the presence of 10 μM AOH1996 depicted in light grey and 30 μM AOH1996 depicted in dark grey. FIG. 1C: Four monomers (chains A-D) of PCNA are present in the asymmetric unit of the crystal. Chains A, B, and C form the homotrimer biological unit, while chain Dis orientated perpendicular to the plane of the ring, below the interface of chains B and C and it belongs to an adjacent ring. Inset: Three molecules of AOH1160LE bind in and adjacent to the PIP box cavity of each of the PCNA ring subunits. The omit map, gray mesh, is contoured to 1.56. Two PCNA monomer subunits from adjacent rings stack against each other, placing the PIP box and IDCLs of each subunit in opposing directions. FIG. 1D: The three AOH1160LE molecules are shown as stick figure representations. Two of the compounds, left and central, bind into the PIP box cavity at known PCNA-partner/compound interaction sites. […] The electrostatic surface maps are depicted with Poisson-Boltzmann electrostatic surface potentials shown in dark grey and light grey, corresponding to −10 to +10 kT/e respectively.
Targeting the PIP box and APIM binding domain of PCNA. AOH1160, a small molecule PCNA ligand, targets the cancer-distinct L126-Y133 region of PCNA (Malkas et al., 2006) and is selectively toxic to cancer cells (Gu et al., 2018). […]
Thermal denaturation assay for PCNA-AOH1996 interaction. […] Fluorescence intensity was measured within the excitation/emission ranges 470-505/540-700 nm.

A short description of data set [3]: Solubility in aqueous buffer with 10% DMSO. It counts as physicochemical. Conditions: pH 7.4, aqueous with cosolvent or surfactant or cyclodextrin, read-out: soluble at concentration. The method, then:
AOH1160LE was soluble at a 4 mM concentration in aqueous buffer with 10% DMSO, which enabled co-crystallization studies on this analog. A PCNA:AOH1160LE co-crystal diffracted to 2.85 Å resolution at the synchrotron source, and phasing was provided by molecular replacement. Four PCNA subunits were present in the asymmetric unit, with three, chains A, B, C belonging to the homotrimeric ring structure, and the fourth, chain D (FIG. 1C) forms part of an adjacent ring in the unit cell that consists solely of D chains. Packing within the unit cell also places each monomer subunit of the PCNA ring against a subunit from another ring; these two stacked subunits interact via their PIP box binding pockets and […] IDCLs that are orientated in directly opposing directions (FIG. 1D). Clearly observed within the electron density maps are three molecules of AOH1160LE, which bind in and adjacent to the PIP box cavity of each of the PCNA ring subunits, and these compounds have further interactions with the PIP box pocket of the stacked PCNA subunit (FIG. 1D).
Expression, purification and crystallization of PCNA. Human PCNA in a pET22b-hPCNA vector was transformed into E. coli Rosetta 2 (DE3) cells. PCNA expression was induced by 0.4 mM IPTG, OD600=0.6, and cells were grown for 5 hrs at 37° C. […]

Another data set deals with SK-MEL-5. Briefly: Cell growth IC50, screening of AOH1160 analogs. The settings on record: Homo sapiens. The class given is cell-based. The method, then: as §1
The subject of another data set is SK-MEL-28. Briefly: Cell growth IC50, screening of AOH1160 analogs. The class given is cell-based. Conditions: Homo sapiens. The method, then:
as §1

The subject of the next data set is Hela. Briefly: Cell growth IC50, screening of AOH1160 analogs. It counts as cell-based. The settings on record: Homo sapiens, HeLa; read-out: IC50 values. The method, then:
as §1

Converted amounts (≈) assume the structure as drawn. Like-named read-outs stand apart in the source and are kept apart here. Bounds are passed on as bounds.

T1 sequence (P12004 whole entry): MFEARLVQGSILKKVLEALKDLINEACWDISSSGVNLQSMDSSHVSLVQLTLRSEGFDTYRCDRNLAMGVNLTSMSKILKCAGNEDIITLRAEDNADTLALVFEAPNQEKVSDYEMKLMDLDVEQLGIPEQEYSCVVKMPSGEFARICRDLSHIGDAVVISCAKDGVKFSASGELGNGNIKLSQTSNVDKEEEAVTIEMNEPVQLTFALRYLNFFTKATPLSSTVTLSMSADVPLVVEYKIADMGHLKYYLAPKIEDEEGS

As a reminder, the IC50 is the midpoint of a concentration-inhibition curve. For the compound `O=C(CNC(=O)c1cccc2ccccc12)Nc1ccccc1Sc1cccc(F)c1` [AOH1996S-3F, N-(2-((2-((3-fluorophenyl)thio)phenyl)amino)-2-oxoethyl)-1-naphthamide], the IC50 was 2210 nM in the data set with HCT-116, 2320 nM in the data set with RKO and 1600 nM in the data set with OVCAR8.
The term half-life denotes how long it takes for the measured level to halve. `O=C(CNC(=O)c1cccc2ccccc12)Nc1ccccc1Oc1ccccc1` [AOH1160]: in data set [1], the half-life is 3.4 h. Further, the IC50 with SK-N-AS came to 107 nM; in the data set on SK-N-DZ it was 237 nM; in the data set on SK-N-BE(2)c, 325 nM.
On to `C[C@H](NC(=O)c1cccc2ccccc12)C(=O)Nc1ccccc1Oc1ccccc1` [AOH1160LA, (S)—N-(1-oxo-1-((2-phenoxyphenyl)amino)propan-2-yl)-1-naphthamide], for which the IC50 in data set [2] (FIG. 25, read-out: IC50) is approximately 3000 nM; in the data set on SH-SY5Y, 4000 nM; in the data set with MDA-MB-468 it was 4900 nM; with SK-N-FI, 3000 nM.
With `O=C(CNC(=O)c1cccc2ccccc12)Nc1ccccc1Sc1ccccc1F` [AOH1996S-2F, N-(2-((2-((2-fluorophenyl)thio)phenyl)amino)-2-oxoethyl)-1-naphthamide], the IC50 worked out at 220 nM in the data set on MDA-MB-231 and 410 nM in the data set with OVCAR8.
With `O=C(O)CC[C@H](NC(=O)c1cccc2ccccc12)C(=O)Nc1ccccc1Oc1ccccc1` [AOH1160LE], at PCNA, the “shift of protein melting curves (ΔTm)” value is not above 0.5 °C. Moreover, the IC50 in data set [2] (read-out: IC50 values) is more than 10000 nM. In addition, the solubility in [3] amounted to 4 mM (≈ 1870 µg/mL).
Turning to `O=C(CNC(=O)c1cccc2ccccc12)Nc1ccccc1Sc1ccccc1` [AOH1160S, N-(2-oxo-2-((2-(phenylthio)phenyl)amino)ethyl)-1-naphthamide], the IC50 in the data set on SK-MEL-5 stood at 610 nM; in the data set with SK-MEL-28, 340 nM; in the data set with Hela, 290 nM; in the data set with MDA-MB-468 it was 316 nM.

Values taken from patent publication US20250171404A1, “PCNA INHIBITORS AND USES THEREOF” (CITY OF HOPE, priority 2022, published 2025).
